Assay results taken from PMC10066365, “Nemacol is a small molecule inhibitor of C. elegans vesicular acetylcholine transporter with anthelmintic potential” (Nature Communications, 2023).
“And” between values parts separate entries of the source, which are not always exact repeats. Equal values may be shown once.

Test system: C. elegans
Test: C. elegans motor phenotype scoring on solid media (Punc/jerky-unc, coiled, paralyzed), wild-type young adults
Format: in vivo, Caenorhabditis elegans
Settings: for Fraction Paralyzed / Fraction Punc / Fraction Coiled: single replicate; for AVERAGES Fraction Coiled / AVERAGES Fraction Paralyzed / AVERAGES Fraction Punc: mean of 3 replicates
[1] = 60uM, one hour, young adults, 20 animals per trial, single replicate counts

With `CCC1CCC(N2CCN(c3ccc([N+](=O)[O-])cc3)CC2)CC1` (centres unmarked) [Nemacol-2] the “Fraction Paralyzed” value (30 μM, 90 min, adults) was 0.278 and 0.167, the “Fraction Punc” value (30 μM, 90 min, adults) was 0.444 and 0.556 and 0.667 and the “C1 (number of animals)” value (30 μM, 120 min, adults) was 3 and 2. For the same compound, the “C2 (number of animals)” value (30 μM, 120 min, adults) was 1 and 2, the “NP (number of animals)” value (30 μM, 120 min, adults) was 0 and the “AVERAGES Fraction Coiled” value (30 μM, 120 min, adults) was 0.2. The “AVERAGES Fraction Paralyzed” value (30 μM, 120 min, adults) was 0.278, the “AVERAGES Fraction Punc” value (30 μM, 120 min, adults) was 0.5 and the “Fraction Coiled” value (30 μM, 120 min, adults) was 0.222 and 0.167. For the same compound, the “Fraction Paralyzed” value (30 μM, 120 min, adults) was 0.556 and 0.222 and 0.0556, the “Fraction Punc” value (30 μM, 120 min, adults) was 0.222 and 0.6 and 0.7 and the “NP (number of animals)” value (30 μM, 240 min, adults) was 2 and 3 and 4. For the same compound, the “P (number of animals)” value (30 μM, 240 min, adults) was 4 and 2, the “Punc (number of animals)” value (30 μM, 240 min, adults) was 11 and 12 and the “AVERAGES Fraction Coiled” value (30 μM, 240 min, adults) was 0.0556. The “AVERAGES Fraction Paralyzed” value (30 μM, 240 min, adults) was 0.148, the “AVERAGES Fraction Punc” value (30 μM, 240 min, adults) was 0.6 and the “Fraction Coiled” value (30 μM, 240 min, adults) was 0.0556 and 0.111 and 0.0. For the same compound, the “Fraction Paralyzed” value (30 μM, 240 min, adults) was 0.222 and 0.111, the “Fraction Punc” value (30 μM, 240 min, adults) was 0.6 and 0.667 and the “C2 (number of animals)” value (30 μM, 360 min, adults) was 0. The “NP (number of animals)” value (30 μM, 360 min, adults) was 6 and 9 and 10, the “Punc (number of animals)” value (30 μM, 360 min, adults) was 5 and 7 and 8 and the “AVERAGES Fraction Coiled” value (30 μM, 360 min, adults) was 0.0196. The “AVERAGES Fraction Paralyzed” value (30 μM, 360 min, adults) was 0.135, the “AVERAGES Fraction Punc” value (30 μM, 360 min, adults) was 0.376 and the “Fraction Coiled” value (30 μM, 360 min, adults) was 0.0588 and 0.0. The “Fraction Paralyzed” value (30 μM, 360 min, adults) was 0.3 and 0.111 and 0.0, the “Fraction Punc” value (30 μM, 360 min, adults) was 0.3 and 0.4 and 0.444 and the “C1 (number of animals)” value (60 μM, 30 min, adults) was 3 and 4. For the same compound, the “C2 (number of animals)” value (60 μM, 30 min, adults) was 2, the “NP (number of animals)” value (60 μM, 30 min, adults) was 0 and the “Punc (number of animals)” value (60 μM, 30 min, adults) was 7 and 10 and 12. For the same compound, the “AVERAGES Fraction Coiled” value (60 μM, 30 min, adults) was 0.3, the “AVERAGES Fraction Paralyzed” value (60 μM, 30 min, adults) was 0.154 and the “AVERAGES Fraction Punc” value (60 μM, 30 min, adults) was 0.545. For the same compound, the “Fraction Coiled” value (60 μM, 30 min, adults) was 0.3 and 0.333 and 0.278, the “Fraction Paralyzed” value (60 μM, 30 min, adults) was 0.3 and 0.111 and 0.0556 and the “Fraction Punc” value (60 μM, 30 min, adults) was 0.4 and 0.556 and 0.667. The “C2 (number of animals)” value (60 μM, 60 min, adults) was 2 and 4 and 3, the “NP (number of animals)” value (60 μM, 60 min, adults) was 0 and the “P (number of animals)” value (60 μM, 60 min, adults) was 9 and 7 and 8. The “Punc (number of animals)” value (60 μM, 60 min, adults) was 4 and 6, the “AVERAGES Fraction Coiled” value (60 μM, 60 min, adults) was 0.259 and the “AVERAGES Fraction Paralyzed” value (60 μM, 60 min, adults) was 0.444. For the same compound, the “AVERAGES Fraction Punc” value (60 μM, 60 min, adults) was 0.3, the “Fraction Coiled” value (60 μM, 60 min, adults) was 0.278 and 0.222 and the “Fraction Paralyzed” value (60 μM, 60 min, adults) was 0.5 and 0.4 and 0.444. The “Fraction Punc” value (60 μM, 60 min, adults) was 0.222 and 0.333, the “C1 (number of animals)” value (60 μM, 90 min, adults) was 3 and 4 and the “C2 (number of animals)” value (60 μM, 90 min, adults) was 3 and 4. For the same compound, the “NP (number of animals)” value (60 μM, 90 min, adults) was 0, the “AVERAGES Fraction Coiled” value (60 μM, 90 min, adults) was 0.37 and the “AVERAGES Fraction Paralyzed” value (60 μM, 90 min, adults) was 0.426. The “AVERAGES Fraction Punc” value (60 μM, 90 min, adults) was 0.2, the “Fraction Coiled” value (60 μM, 90 min, adults) was 0.333 and 0.4 and the “Fraction Paralyzed” value (60 μM, 90 min, adults) was 0.6 and 0.222 and 0.444. For the same compound, the “Fraction Punc” value (60 μM, 90 min, adults) was 0.0556 and 0.4 and 0.167, the “C1 (number of animals)” value (60 μM, 120 min, adults) was 2 and the “NP (number of animals)” value (60 μM, 120 min, adults) was 0. For the same compound, the “AVERAGES Fraction Coiled” value (60 μM, 120 min, adults) was 0.3, the “AVERAGES Fraction Paralyzed” value (60 μM, 120 min, adults) was 0.4 and the “AVERAGES Fraction Punc” value (60 μM, 120 min, adults) was 0.3. The “Fraction Coiled” value (60 μM, 120 min, adults) was 0.222 and 0.444, the “Fraction Paralyzed” value (60 μM, 120 min, adults) was 0.6 and 0.333 and 0.278 and the “Fraction Punc” value (60 μM, 120 min, adults) was 0.167 and 0.444 and 0.278. For the same compound, the “NP (number of animals)” value (60 μM, 240 min, adults) was 0, the “AVERAGES Fraction Coiled” value (60 μM, 240 min, adults) was 0.167 and the “AVERAGES Fraction Paralyzed” value (60 μM, 240 min, adults) was 0.352. The “AVERAGES Fraction Punc” value (60 μM, 240 min, adults) was 0.5, the “Fraction Coiled” value (60 μM, 240 min, adults) was 0.167 and the “Fraction Paralyzed” value (60 μM, 240 min, adults) was 0.6 and 0.222. The “Fraction Punc” value (60 μM, 240 min, adults) was 0.222 and 0.6, the “Punc (number of animals)” value (60 μM, 360 min, adults) was 6 and 11 and 10 and the “Remark on animals at 360 min” value (60 μM, 360 min, adults) was “look dead”. For the same compound, the “AVERAGES Fraction Coiled” value (60 μM, 360 min, adults) was 0.0556, the “AVERAGES Fraction Paralyzed” value (60 μM, 360 min, adults) was 0.4 and the “AVERAGES Fraction Punc” value (60 μM, 360 min, adults) was 0.5. The “Fraction Coiled” value (60 μM, 360 min, adults) was 0.0556 and 0.111 and 0.0, the “Fraction Paralyzed” value (60 μM, 360 min, adults) was 0.6 and 0.278 and the “Fraction Punc” value (60 μM, 360 min, adults) was 0.333 and 0.6 and 0.556. For the same compound, the “atypical locomotion (number of animals)” value [1] was 3 and 6 and 1, the “coiled (number of animals)” value [1] was 9 and 6 and 3 and 1 and the “no phene (number of animals)” value [1] was 0. The “paralyzed (number of animals)” value [1] was 8 and 14 and 18 and the EC50 (Caenorhabditis elegans, 1 h, Fig. 1, dose-response at 60 min, wild-type young adults, +/- 95% CI, read-out: EC50) was 6.6 ± 0.4 µM.
